These results are taken from paper PMC5869712 (Scientific Reports, 2018).

Assay [1] concerns DBA/1 mice with collagen-induced arthritis. Put plainly: Collagen-induced arthritis mouse model: clinical score, histology, safety. Format: in vivo. The conditions noted are these: CIA mice; 30 mg/kg; model group 3.8; grades 0-4. The procedure: The animal protocol was approved by the Animal Care and Use Committee of Sichuan University in China (IACUC number: 20100318). DBA/1 J mice (male, 6 weeks old) were obtained from Jackson Laboratory (Bar Harbor, ME). One day before the start of the experiment, CII solution (2 mg/ml) was prepared with 0.05 M acetic acid and stored at 4 °C. Just before the immunization, equal volumes of IFA and CII were mixed by a homogenizer in a precooled glass bottle in an ice water bath. Arthritis was induced in 8-week old male DBA/1 mice by immunizations with a 1:1 emulsion of bovine type II collagen (Chondrex) and Freund’s complete adjuvant (Sigma-Aldrich) on day 0 and with a 1:1 emulsion of bovine type II collagen in Freund’s incomplete adjuvant (Sigma-Aldrich) on day 21. […] On the day treatment was initiated, the mice were randomly assigned to controls (no collagen injection plus vehicle; […]. Mice were scored daily for signs of arthritis for 33 days. CIA development was inspected three times per week, and the inflammation of the four paws was graded from 0 to 4 (grade 0, paws with no swelling or focal redness; grade 1, paws with swelling of finger joints; grade 2, paws with a mild swelling of the ankle or wrist joints; grade 3, paws with severe inflammation of the entire paw; and grade 4, paws with deformity or ankylosis). Each paw was graded, and the four scores were totalled so that the possible maximum score per mouse was 16.
DBA1/J mice were sacrificed on day 33 after treatment and ankle joints were removed and fixed with 4% paraformaldehyde for more than 48 h. The joints were decalcified in EDTA buffer for 21 days and then embedded in paraffin blocks. Joint sections were stained with H&E or safranin O-fast green. Histological changes were examined under microscope using methods modified from McKew et al.[43] as follows: grade 0 = no abnormal findings; grade 1 = synoviocyte hypertrophy, slight synovial membrane fibrosis, slight-to-mild inflammatory cell infiltrates into the synovial membrane/articular capsule and/or joint space; grade 2 = grade 1 plus mild-to-moderate inflammatory cell infiltrates, pannus formation (if present) minimal with superficial cartilage erosion; grade 3 = grade 2 plus marked inflammatory cell infiltrates and fibrosis, mild-to-severe erosion of the cartilage extending into the subchondral bone; and grade 4 = loss of joint integrity through erosion or destruction with bone remodelling, massive inflammatory cell infiltrates, fibrosis, and ankylosis.

For assay [2], the system named is cytokine gene transcription in joint tissue of CIA mice. Put plainly: Cytokine gene expression in joints of CIA mice by RT-PCR. Format: in vivo, mouse.

As for `C[C@@H]1CCN(C(=O)CC#N)C[C@@H]1N(C)c1ncnc2[nH]ccc12` [Tofacitinib, reference compound], in assay [1], the “group mean histological severity score” value is 1.8. Moreover, in assay [2], the IL-10 expression entry is listed as “significantly increased its expression”.
